For orientation: IC50 means the concentration at which inhibition is half-maximal.

17 molecules from patent US20190119282A1, “IMIDAZOPYRIDAZINES USEFUL AS INHIBITORS OF THE PAR-2 SIGNALING PATHWAY” (Vertex Pharmaceuticals Incorporated, priority 2013, published 2019) can be followed below.

Test [1] concerns UTP-stimulated Ca2+ response in HT-29 cells. The test can be described thus: Ca FLIPR TETRA assay, ANTAGONIST mode, stimulation with 0.6 μM UTP. It counts as cell-based, human. As to conditions: Homo sapiens; HT-29 cells, stimulation with 0.6 μM UTP. Here is the method: (§1) Example 60: Protocol for Testing PAR2 Compounds in ANTAGONIST Mode Using the Ca FLIPR^TETRA Assay (384 Well)
(§2) 23000 HT-29 cells (ATCC# HTB-38) were plated in 384-well black, transparent-flat bottom plates and incubated in 25 uL of 1% FBS/McCoy's media ON at 37° C. under an atmosphere of 5% CO2. The following day, 25 uL FLIPR calcium 5 Molecular Devices assay reagent (Cat: R-8186) was added. Plates were incubated at 37° C. and r. t. for 45 min and 15 min, respectively. Compounds dilutions were prepared in 100% DMSO using a Biomek FX and diluted 20-fold in HBSS and then 5.5 uL was added directly to the cells by the FLIPR^TETRA (10× dilution) using FLIPR Tetra Pipette tips, black, non-sterile, 384 Molecular Devices (Cat: 9000-0764).
(§3) A first read was performed to determine whether the test compounds on their own can activate Ca2+ responses.
(§4) The cells were incubated with the compounds for 30 min at r. t. and then read in ANTAGONIST mode in the same plate by stimulating with 6.2 uL of a fixed concentration of the activator: final concentrations: 8 μM SLIGKV, 1 U/mL Thrombin, 3.1 U/mL trypsin, or 0.6 μM UTP.

Test [2] deals with T1, PAR2 (HT-29 cells, trypsin activation) (Homo sapiens, UniProt P55085).
T1 construct: host or cells: HT-29 cells
T1 sequence (P55085 26-397): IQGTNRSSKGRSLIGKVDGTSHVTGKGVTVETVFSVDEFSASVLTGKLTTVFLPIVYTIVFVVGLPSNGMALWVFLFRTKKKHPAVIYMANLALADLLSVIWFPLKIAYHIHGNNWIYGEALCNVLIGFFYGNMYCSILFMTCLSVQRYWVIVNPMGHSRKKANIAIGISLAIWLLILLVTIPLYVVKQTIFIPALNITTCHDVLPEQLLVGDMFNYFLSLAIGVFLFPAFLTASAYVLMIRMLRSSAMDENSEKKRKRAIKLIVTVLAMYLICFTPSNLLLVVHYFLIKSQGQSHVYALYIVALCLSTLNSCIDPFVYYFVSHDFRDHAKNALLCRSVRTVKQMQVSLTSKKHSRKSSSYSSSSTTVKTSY
Briefly: Ca FLIPR TETRA assay, ANTAGONIST mode, stimulation with 3.1 U/mL trypsin. It counts as cell-based. To be noted: HT-29 cells, stimulation with 3.1 U/mL trypsin. How it is done: as §1, §2, §3, §4

Test [3] deals with Thrombin-stimulated Ca2+ response in HT-29 cells. Briefly: Ca FLIPR TETRA assay, ANTAGONIST mode, stimulation with 1 U/mL Thrombin. It counts as cell-based, human. To be noted: for IC50: Homo sapiens, HT-29 cells, stimulation with 1 U/mL Thrombin. Here is the method:
as §1, §2, §3, §4

Test [4] deals with T2, PAR2 (HT-29 cells, SLIGKV activation) (Homo sapiens, UniProt P55085).
T2 construct: host or cells: HT-29 cells
T2 sequence (P55085 26-397): T1 sequence (P55085 26-397)
Briefly: Ca FLIPR TETRA assay, ANTAGONIST mode, stimulation with 8 μM SLIGKV. It counts as cell-based. As to conditions: HT-29 cells, stimulation with 8 μM SLIGKV. Here is the method:
as §1, §2, §3, §4

As for `C=CC(=O)N1CCN(C(=O)c2cn3nc(-c4ccc(F)cc4)cc(C(C)C)c3n2)C[C@@H]1C` [Compound I-17, 1-[(2S)-4-[6-(4-Fluorophenyl)-8-isopropyl-imidazo[1,2-b]pyridazine-2-carbonyl]-2-methyl-piperazin-1-yl]prop-2-en-1-one], the IC50 in test [1] came to 19 µM; in test [2], 0.78 µM; in test [3], 20 µM; in test [4] it was 0.041 µM.
In the case of `CC(C)c1cc(Cl)nn2cc(C(=O)N3CCN(C(=O)OC(C)(C)C)CC3(C)C)nc12` [Compound I-18, tert-Butyl 4-(6-chloro-8-isopropyl-imidazo[1,2-b]pyridazine-2-carbonyl)-3,3-dimethyl-piperazine-1-carboxylate], the IC50 came to 18 µM in test [1], 6.8 µM in test [2], 20 µM in test [3] and 2.8 µM in test [4].
For the molecule `CC(C)c1cc(-c2ccc(F)cc2)nn2cc(C(=O)N3CCN(C(=O)C4(O)CCC4)CC3(C)C)nc12` [Compound I-19, [6-(4-Fluorophenyl)-8-isopropyl-imidazo[1,2-b]pyridazin-2-yl]-[4-(1-hydroxycyclobutanecarbonyl)-2,2-dimethyl-piperazin-1-yl]methanone], the IC50 in test [1] was 50 µM; in test [2] it was 0.056 µM; in test [4], 0.025 µM. Moreover, the “Thrombin % @ concentration” value in test [3] (@ 50 (μM)) came to 62% @ 50.
For `CC(C)(O)C(=O)N1CCN(C(=O)c2cn3nc(-c4ccc(F)cc4)cc(C4CC4)c3n2)C(C)(C)C1` [Compound I-20, 1-[4-[8-cyclopropyl-6-(4-fluorophenyl)imidazo[1,2-b]pyridazine-2-carbonyl]-3,3-dimethyl-piperazin-1-yl]-2-hydroxy-2-methyl-propan-1-one], the 50% inhibitory concentration (IC50) in test [1] turned out to be 3 µM; in test [2], 1.02 µM; in test [3], 3.6 µM; in test [4], 0.28 µM.
Take `CC1(C)CN(C(=O)C2(O)CCC2)CCN1C(=O)c1cn2nc(-c3ccc(F)cc3)cc(C3CC3)c2n1` [Compound I-21, [8-cyclopropyl-6-(4-fluorophenyl)imidazo[1,2-b]pyridazin-2-yl]-[4-(1-hydroxycyclobutanecarbonyl)-2,2-dimethyl-piperazin-1-yl]methanone]: the IC50 in test [1] is 64 µM; in test [2] it was 0.029 µM; in test [3] it was > 50 µM; in test [4], 0.019 µM.
The corresponding values for `CC(C)C(O)C(=O)N1CCN(C(=O)c2cn3nc(-c4ccc(F)cc4)cc(C4CC4)c3n2)C(C)(C)C1` (centres unmarked) [Compound I-22, 1-[4-[8-cyclopropyl-6-(4-fluorophenyl)imidazo[1,2-b]pyridazine-2-carbonyl]-3,3-dimethyl-piperazin-1-yl]-2-hydroxy-3-methyl-butan-1-one] are 25 µM, 0.014 µM, 21 µM and 0.007 µM.
The corresponding values for `CC(C)c1cc(-c2ccc(F)cc2)nn2cc(C(=O)N3CCN(C(=O)OC(C)(C)C)CC34COC4)nc12` [Compound I-23, tert-butyl 5-[6-(4-fluorophenyl)-8-isopropyl-imidazo[1,2-b]pyridazine-2-carbonyl]-2-oxa-5,8-diazaspiro[3.5]nonane-8-carboxylate] are > 50 µM, 0.3 µM, > 50 µM and 0.13 µM.
The corresponding values for `CC(C)c1cc(-c2ccc(F)cc2)nn2cc(C(=O)N3CCC4(CC3)CNC(=O)O4)nc12` [Compound I-24, 8-[6-(4-fluorophenyl)-8-isopropyl-imidazo[1,2-b]pyridazine-2-carbonyl]-1-oxa-3,8-diazaspiro[4.5]decan-2-one] are > 50 µM, 0.59 µM, > 50 µM and 0.22 µM.
`CC(C)c1cc(-c2ccc(F)cc2)nn2cc(C(=O)N3CCNC(=O)C3(C)C)nc12` [Compound I-25, 4-[6-(4-fluorophenyl)-8-isopropyl-imidazo[1,2-b]pyridazine-2-carbonyl]-3,3-dimethyl-piperazin-2-one]: the half-inhibitory concentration (IC50) in test [1] is > 50 µM; in test [2], 0.021 µM; in test [3], > 50 µM; in test [4], 0.009 µM.
`CC(C)c1cc(-c2ccc(F)cc2)nn2cc(C(=O)N3CCN(C(=O)C4(O)CCOCC4)CC34COC4)nc12` [Compound I-26, [6-(4-fluorophenyl)-8-isopropyl-imidazo[1,2-b]pyridazin-2-yl]-[8-(4-hydroxytetrahydropyran-4-carbonyl)-2-oxa-5,8-diazaspiro[3.5]nonan-5-yl]methanone]: the IC50 in test [1] was 31 µM; in test [2] it was 9.1 µM; in test [3] it was 28 µM; in test [4], 4.4 µM.
The corresponding values for `CC(C)c1cc(-c2ccc(F)cc2)nn2cc(C(=O)N3CCN(C(=O)C4(O)CCC4)C[C@@H]3C)nc12` [Compound I-28, [6-(4-fluorophenyl)-8-isopropyl-imidazo[1,2-b]pyridazin-2-yl]-[(2S)-4-(1-hydroxycyclobutanecarbonyl)-2-methyl-piperazin-1-yl]methanone] are 38 µM, 15 µM, 33 µM and 8.8 µM.
Taken in the same sequence, the figures for `CC1(c2cc(-c3ccc(F)cc3)nn3cc(C(=O)N4CCNC(=O)C4(C)C)nc23)CC1` [Compound I-30, 4-[6-(4-fluorophenyl)-8-(1-methylcyclopropyl)imidazo[1,2-b]pyridazine-2-carbonyl]-3,3-dimethyl-piperazin-2-one] were 26 µM, 0.003 µM, 25 µM and 0.002 µM.
The corresponding values for `CC1(c2cc(-c3ccc(F)cc3)nn3cc(C(=O)N4CCN(C(=O)C5(O)CCOCC5)CC4(C)C)nc23)CC1` [Compound I-31, [6-(4-fluorophenyl)-8-(1-methylcyclopropyl)imidazo[1,2-b]pyridazin-2-yl]-[4-(4-hydroxytetrahydropyran-4-carbonyl)-2,2-dimethyl-piperazin-1-yl]methanone] are 24 µM, 0.042 µM, 19 µM and 0.031 µM.
`CC1(c2cc(-c3ccc(F)cc3)nn3cc(C(=O)N4CCN(C(=O)C5(O)CCC5)CC4(C)C)nc23)CC1` [Compound I-33, [6-(4-fluorophenyl)-8-(1-methylcyclopropyl)imidazo[1,2-b]pyridazin-2-yl]-[4-(1-hydroxycyclobutanecarbonyl)-2,2-dimethyl-piperazin-1-yl]methanone]: the IC50 in test [1] was > 50 µM; in test [2] it was 0.014 µM; in test [3], > 50 µM; in test [4] it was 0.045 µM.
`C[C@H](O)C(=O)N1CCN(C(=O)c2cn3nc(-c4ccc(F)cc4)cc(C4(C)CC4)c3n2)C(C)(C)C1` [Compound I-34, (2S)-1-[4-[6-(4-fluorophenyl)-8-(1-methylcyclopropyl)imidazo[1,2-b]pyridazine-2-carbonyl]-3,3-dimethyl-piperazin-1-yl]-2-hydroxy-propan-1-one]: the IC50 in test [1] amounted to 21 µM; in test [2], 0.059 µM; in test [3], 21 µM; in test [4] it was 0.054 µM.
For the molecule `CC1(C)C(=O)NCCN1C(=O)c1cn2nc(-c3ccc(F)cc3)cc(C(F)(F)F)c2n1` [Compound I-35, 4-[6-(4-Fluorophenyl)-8-(trifluoromethyl)imidazo[1,2-b]pyridazine-2-carbonyl]-3,3-dimethyl-piperazin-2-one], the concentration for half-maximal inhibition (IC50) in test [1] amounted to 41 µM; in test [2], 0.062 µM; in test [3] it was 43 µM; in test [4], 0.023 µM.
The corresponding values for `CC(C)(O)C(=O)N1CCN(C(=O)c2cn3nc(-c4ccc(F)cc4)cc(C(F)(F)F)c3n2)C(C)(C)C1` [Compound I-36, 1-[4-[6-(4-Fluorophenyl)-8-(trifluoromethyl)imidazo[1,2-b]pyridazine-2-carbonyl]-3,3-dimethyl-piperazin-1-yl]-2-hydroxy-2-methyl-propan-1-one] are > 50 µM, 0.24 µM, > 50 µM and 0.071 µM.
